In PubChem BioAssay (NCI):
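Cultured in 96-well plates, cells were exposed to test compound for 48 hours across five concentrations. TGI denotes the concentration required for complete inhibition of growth.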

Experiments:
Assay in all cases: NCI tumour cell line growth inhibition, 48 h
[1] = test system: M19-MEL melanoma
[2] = test system: EKVX NSCLC
[3] = test system: UACC-257 melanoma
[4] = test system: HOP-18 NSCLC
[5] = test system: SNB-75 CNS
[6] = test system: HCT-116 colon
[7] = test system: DLD-1 colon
[8] = test system: K-562 leukemia
[9] = test system: SNB-19 CNS
[10] = test system: MALME-3M melanoma
[11] = test system: COLO 205 colon
[12] = test system: NCI-H522 lung
[13] = test system: A549 NSCLC
[14] = test system: SK-MEL-2 melanoma
[15] = test system: OVCAR-4 ovarian
[16] = test system: CAKI-1 renal
[17] = test system: SF-539 CNS
[18] = test system: NCI/ADR-RES ovarian
[19] = test system: SK-OV-3 ovarian
[20] = test system: DMS 114 small cell lung

Q: For `N/C(=N\N=C/c1c(O)cc(O)cc1O)NO`, which TGI [1] is on record?
A: Its TGI is greater than 100 µM.

Q: What about the TGI [2] of the same compound?
A: The TGI was greater than 94.5 µM.

Q: And the TGI [3]?
A: The TGI was greater than 100 µM.

Q: What about the TGI [4] of the same compound?
A: Its TGI is greater than 100 µM.

Q: And the TGI [5]?
A: Its TGI is 98.8 µM.

Q: And the TGI [6]?
A: Its TGI is greater than 100 µM.

Q: And the TGI [7]?
A: The TGI was greater than 100 µM.

Q: What about the TGI [8] of the same compound?
A: Its TGI is greater than 100 µM.

Q: What about the TGI [9] of the same compound?
A: Its TGI is greater than 100 µM.

Q: What about the TGI [10] of the same compound?
A: The TGI was greater than 100 µM.

Q: What about the TGI [11] of the same compound?
A: The TGI was greater than 100 µM.

Q: And the TGI [12]?
A: Its TGI is greater than 100 µM.

Q: What about the TGI [13] of the same compound?
A: Its TGI is greater than 100 µM.

Q: What about the TGI [14] of the same compound?
A: Its TGI is greater than 100 µM.

Q: What about the TGI [15] of the same compound?
A: The TGI was greater than 100 µM.

Q: And the TGI [16]?
A: Its TGI is greater than 100 µM.

Q: What about the TGI [17] of the same compound?
A: The TGI was greater than 100 µM.

Q: And the TGI [18]?
A: The TGI was greater than 100 µM.

Q: What about the TGI [19] of the same compound?
A: Its TGI is greater than 100 µM.

Q: And the TGI [20]?
A: The TGI was greater than 100 µM.

Q: `CN1Cc2ccccc2C2(COc3ccccc3C2=O)C1` (stereo not given) was tested. Which TGI [1] did it give?
A: Its TGI is greater than 100 µM.

Q: And the TGI [2]?
A: Its TGI is greater than 100 µM.

Q: And the TGI [3]?
A: Its TGI is greater than 100 µM.

Q: What about the TGI [4] of the same compound?
A: The TGI was greater than 100 µM.

Q: And the TGI [5]?
A: The TGI was greater than 100 µM.

Q: And the TGI [6]?
A: Its TGI is greater than 100 µM.

Q: What about the TGI [7] of the same compound?
A: The TGI was greater than 100 µM.

Q: And the TGI [8]?
A: The TGI was greater than 100 µM.

Q: And the TGI [9]?
A: Its TGI is greater than 100 µM.

Q: And the TGI [10]?
A: Its TGI is greater than 100 µM.

Q: And the TGI [12]?
A: The TGI was greater than 100 µM.

Q: What about the TGI [13] of the same compound?
A: Its TGI is greater than 100 µM.

Q: And the TGI [14]?
A: Its TGI is greater than 100 µM.

Q: And the TGI [15]?
A: The TGI was greater than 100 µM.

Q: What about the TGI [16] of the same compound?
A: Its TGI is greater than 100 µM.

Q: And the TGI [17]?
A: Its TGI is greater than 100 µM.

Q: And the TGI [19]?
A: The TGI was greater than 100 µM.

Q: What about the TGI [20] of the same compound?
A: The TGI was greater than 100 µM.

Q: Which results are given for `Cc1cc(C)c(S(=O)(=O)N(CCCCCN)OCCCN)c(C)c1`?
A: TGI [2]: 30.6 µM; TGI [3]: 32 µM; TGI [5]: 30.9 µM; TGI [6]: 32.7 µM; TGI [8]: 60.8 µM; TGI [9]: 37.6 µM; TGI [10]: 40.2 µM; TGI [11]: 37.9 µM; TGI [13]: 36 µM; TGI [14]: 35.1 µM; TGI [15]: 37.8 µM; TGI [16]: 31.2 µM; TGI [17]: 27 µM; TGI [18]: 34.3 µM

Q: What does the source list for `CC(=O)c1c(-c2ccco2)c(C#N)c(=S)n(C2OC(CO)C(O)C(O)C2O)c1C` (stereo not given)?
A: TGI [2]: > 100 µM; TGI [3]: > 100 µM; TGI [5]: > 100 µM; TGI [6]: > 100 µM; TGI [8]: > 100 µM; TGI [9]: > 100 µM; TGI [10]: > 100 µM; TGI [11]: > 100 µM; TGI [13]: > 100 µM; TGI [15]: > 100 µM; TGI [16]: > 100 µM; TGI [17]: > 100 µM; TGI [18]: > 100 µM; TGI [19]: > 100 µM

Q: Which TGI [1] does the source give for `CN1COCN=C1NC#N` here?
A: The TGI was greater than 100 µM.

Q: And the TGI [2]?
A: Its TGI is greater than 100 µM.

Q: What about the TGI [3] of the same compound?
A: Its TGI is greater than 100 µM.

Q: And the TGI [4]?
A: Its TGI is greater than 100 µM.

Q: And the TGI [5]?
A: Its TGI is greater than 100 µM.

Q: And the TGI [6]?
A: The TGI was greater than 100 µM.

Q: What about the TGI [7] of the same compound?
A: The TGI was greater than 100 µM.

Q: What about the TGI [8] of the same compound?
A: The TGI was greater than 100 µM.

Q: What about the TGI [9] of the same compound?
A: The TGI was greater than 100 µM.

Q: And the TGI [10]?
A: The TGI was greater than 100 µM.

Q: And the TGI [11]?
A: The TGI was greater than 100 µM.

Q: And the TGI [12]?
A: The TGI was greater than 100 µM.

Q: What about the TGI [13] of the same compound?
A: The TGI was greater than 100 µM.

Q: And the TGI [14]?
A: The TGI was greater than 100 µM.

Q: What about the TGI [15] of the same compound?
A: The TGI was greater than 100 µM.

Q: And the TGI [16]?
A: Its TGI is greater than 100 µM.

Q: And the TGI [17]?
A: The TGI was greater than 100 µM.

Q: What about the TGI [19] of the same compound?
A: Its TGI is greater than 100 µM.

Q: And the TGI [20]?
A: The TGI was greater than 100 µM.
